In patent publication US11666596B2, “Nucleotide, polypeptide and applications thereof” (THE FIRST AFFILIATED HOSPITAL, SUN YAT-SEN UNIVERSITY, priority 2017, dated 2023):
Ends that are not written are not given here.

System: U251 cells
Experiment: Verification of ability of micropeptide to enter cells (fluorescence microscopy)
Format: cell-based
Details: FITC-attached micropeptide, 10 μM, 4 hours; all cells in sight were fluorescent; FIG. 4
Procedure: U251 cells were inoculated onto a glass slide at the density of 50%, and different concentrations of PTEN-31aa micropeptide attached with FITC fluorescent groups (the micropeptide was dissolved in DMSO with a concentration being 20 μg/μL, 5 mM) were added to treat cells for 4 hours, then fixed with Faure Marin, and observed and photographed under a fluorescence microscope.

MWRDSLCAAAGYALGAGTRLRSVLSSRKLQP [PTEN-31aa]
ability of micropeptide to enter U251 cells: could enter the U251 cells smoothly
